# Experimental data reported in paper PMC4121215, “Cytotoxic Constituents from the Rhizomes of Curcuma zedoaria” (The Scientific World Journal, 2014).
# “Also recorded” adds a separate entry of the source.
# Experiments:
# PC-3 (prostate cancer) = assay: MTT cytotoxicity assay, PC-3; format: cell-based; settings: for IC50: Homo sapiens, MTT, 72 h, mean ± SD of three replicates; for IC50 / SI (selectivity index) PC-3: isolated compounds; for SI (selectivity index) PC-3: IC50 HUVEC / IC50 PC-3; for antiproliferative/cytotoxic activity against PC-3 (in words): MTT assay
# Protocol: (§1) The human cell lines MCF-7 (breast cancer), Ca Ski (cervical cancer), and HT-29 (colon cancer) were cultured as monolayer in RPMI 1640 growth media. HUVEC (human umbilical vein endothelial cells) and PC-3 (prostate cancer) cells were cultured in DMEM. All cells were purchased from the American Tissue Culture Collection (ATCC, USA) except for human umbilical vein endothelial cells (HUVEC) which were obtained from ScienCell Research Laboratories (Carlsbad, CA). All the media were supplemented with 10% v/v foetal bovine serum (FBS), 100 μg/mL penicillin/streptomycin, and 50 μg/mL amphotericin B. The cells were cultured in a 5% CO2 incubator at 37°C.
# (§2) Cell viability was investigated using 3-(4, 5-dimethylthiazol-2-yl)-2, 5-diphenyltetrazolium bromide (MTT) assay. Cells were detached from the […] tissue culture flask when it achieved 80% confluency. The detached cells were pellet by centrifugation (1,000 rpm; 5 minutes). Cells (3.0 × 10^4 cells/mL) were seeded onto a 96-well microtiter plate (Nunc). The cells were incubated at 37°C CO2 incubator for 24 h to give adherent cells. The test compounds (1–100 μg/mL) were added onto the 96-well microtiter plate containing adherent cells. The untreated cells were incubated in 10% media containing 0.5% DMSO (without addition of any test compounds/extracts). This mixture was regarded as the negative control whereas doxorubicin as the positive control. The plates were incubated for 72 h at 37°C in a 5% CO2 incubator. After 72 h, the media were removed and 100 μL of fresh medium and 20 μL of MTT (Sigma, filter sterile, 5 mg/mL) were added to each well and further incubated for 4 hours (37°C) after which the media were substituted with 150 μL DMSO. The 96-well microtiter plates were then agitated at room temperature onto an incubator shaker to dissolve the formazan crystals. The absorbance (A) of the content of the plates was measured at 540 nm using a microplate reader. The percentage of inhibition of each test sample was calculated according to the following formula: Percentage of inhibition (%) = (A control − A sample)/A control × 100%. The average of three replicates was then obtained. The IC50 for each extract was extrapolated from the graphs of the percentage inhibition versus concentration of test agents. Cytotoxicity of each test agent is expressed as IC50 value. The IC50 value is the concentration of test agents that cause 50% inhibition or cell death, averaged from the three experiments. The selectivity index (SI) was also calculated as described by using the ratio between IC50 of the extract or compounds on normal cell lines (HUVEC) and IC50 of the tested extract or compounds on cancerous cell lines. Selectivity index (SI) values equal or greater than three were considered to have a high selectivity towards cancerous cells. An SI value denotes the selectivity of the sample to the tested cell lines.
# HT-29 (colon cancer) = assay: MTT cytotoxicity assay, HT-29; format: cell-based; settings: for IC50: Homo sapiens, HT-29, MTT, 72 h, mean ± SD of three replicates; for IC50 / SI (selectivity index) HT-29: isolated compounds; for SI (selectivity index) HT-29: IC50 HUVEC / IC50 HT-29; for antiproliferative/cytotoxic activity against HT-29 (in words): MTT assay
# Protocol: as §1, §2
# [1] = design: method as in PMID 23160092; settings: cited from earlier work
# MCF-7 cells [2] = assay: Hoechst 33342/PI double staining, fluorescence microscopy; format: cell-based, human; settings: 48 h, 12.5 and 25 μg/mL
# Protocol: The morphological features of MCF-7 cells upon treatment by the test compounds also observed by double staining of Hoechst 33342/PI assay using the inverted fluorescence microscope (Leica, DM16000B). Briefly, 5 × 10^5 cells were grown overnight and treated with 12.5 and 25 μg/mL of curcumenone (3) and curcumenol (5). After treatment of cells with the test compounds for 48 hours, both floating and adherent cells were collected by centrifugation and washed once with cold PBS. Then, Hoechst 33342 solutions (10 μg/mL) were added and incubated at 37°C for 7 minutes. The cells were then stained with PI (2.5 μg/mL) and further incubated in the dark for 15 minutes. Cell suspension (100 μL) was mounted onto glass microscope slides and observed under fluorescence microscope using UV/488 dual excitation (460 nm emission of Hoechst 33342, 575 nm emission of PI). Approximately a total of 200 target cells were calculated and the morphological characteristics of the nuclei were analyzed for quantification of apoptosis and necrosis. The percentage of apoptotic, necrotic, and dead cells was determined according to the formula described by.
# MCF-7 cells [3] = assay: Phase contrast microscopy of treated MCF-7 cells; format: cell-based, human; settings: 48 h; 12.5 and 25 µg/mL; inverted phase contrast microscope 400x
# Protocol: Briefly, MCF-7 cells (5 × 10^5) were grown in a tissue culture dishes (60 mm) for overnight. Then, the cells were treated with curcumenone (3) and curcumenol (5) at a concentration of 12.5 and 25 μg/mL, respectively. After 48 hours, cells were gently rinsed with PBS. The observation of morphological changes of apoptotic MCF-7 cells after treatment with the two bioactive compounds was viewed using an inverted phase contrast microscope (Leica DMI 3000B, Germany) at 400x magnification according to the method.
# [4] = design: method as in PMID 9871681; settings: cited from earlier work
# [5] = system: liver alcohol dehydrogenase; design: method as in PMID 23160092; settings: cited from earlier work
# Ca Ski (cervical cancer) = assay: cells; format: cell-based; settings: for IC50: Homo sapiens, Ca-Ski, MTT, 72 h, mean ± SD of three replicates; for IC50 / SI (selectivity index) Ca Ski: isolated compounds; for SI (selectivity index) Ca Ski: IC50 HUVEC / IC50 Ca Ski
# Protocol: as §1, §2
# [6] = system: HUVEC (human umbilical vein endothelial cells); assay: cells; format: cell-based; settings: for IC50: Homo sapiens, HUVEC, isolated compounds, MTT, 72 h, normal cells; for toxicity towards normal cells HUVEC (in words): MTT assay
# Protocol: as §1, §2
# MCF-7 (breast cancer) = assay: cells; format: cell-based; settings: for IC50: Homo sapiens, MCF7, MTT, 72 h, mean ± SD of three replicates; for IC50 / SI (selectivity index) MCF-7: isolated compounds; for antiproliferative/cytotoxic activity against MCF-7 (in words): MTT assay; for SI (selectivity index) MCF-7: IC50 HUVEC / IC50 MCF-7
# Protocol: as §1, §2
# P450 = system: P450; design: method as in PMID 20148399; settings: time- and NADPH-dependent inhibitions; cited from earlier work
# [7] = design: method as in PMID 19043244; settings: isolated from the rhizomes of Curcuma zedoaria; cited from earlier work
structure (smiles),measurement,setting,value
"CC(=O)CC[C@@H]1[C@H]2CC(=C(C)C)C(=O)C[C@@]12C [Compound 3, curcumenone]",IC50,PC-3 (prostate cancer),39.8 ± 4.2 µg/mL
same,SI (selectivity index) PC-3,PC-3 (prostate cancer),1.3
same,IC50,HT-29 (colon cancer),43.3 ± 6.2 µg/mL
same,SI (selectivity index) HT-29,HT-29 (colon cancer),1.2
same,effect on alcohol-treated mice,[1],protective effect
same,apoptosis induction,MCF-7 cells [2],induction of apoptotic death occurred
same,morphological changes of MCF-7 cells,MCF-7 cells [3],"cell shrinkage, loss of contact with adjacent cells, and decrease in cell numbers"
same,effect on D-galactosamine/lipopolysaccharide-induced acute liver injury,[4],effective protective effect
same,effect on liver alcohol dehydrogenase activity,[5],acceleration of liver alcohol dehydrogenase activity
same,IC50,Ca Ski (cervical cancer),> 100 µg/mL
same,antiproliferative/cytotoxic activity against Ca Ski (in words),Ca Ski (cervical cancer); MTT assay,did not show any antiproliferative activity
same,SI (selectivity index) Ca Ski,Ca Ski (cervical cancer),0.5
same,IC50,[6],50 ± 8.6 µg/mL
same,toxicity towards normal cells HUVEC (in words),[6],slight toxicity
same,toxicity towards normal cells HUVEC (in words),[6]; listed as curcumenone,low toxicity
same,IC50,MCF-7 (breast cancer),8.3 ± 1 µg/mL
same,antiproliferative/cytotoxic activity against MCF-7 (in words),MCF-7 (breast cancer),strong antiproliferative activity
same,SI (selectivity index) MCF-7,MCF-7 (breast cancer),6.0
"CC1=C[C@]2(O)O[C@@]3(CC2=C(C)C)[C@@H](C)CC[C@@H]13 [Compound 5, curcumenol]",IC50,PC-3 (prostate cancer),17.3 ± 1.2 µg/mL
same,antiproliferative/cytotoxic activity against PC-3 (in words),PC-3 (prostate cancer),moderate inhibitory activity
same,SI (selectivity index) PC-3,PC-3 (prostate cancer),1.5
same,IC50,HT-29 (colon cancer),24.8 ± 2.7 µg/mL
same,antiproliferative/cytotoxic activity against HT-29 (in words),HT-29 (colon cancer),moderate inhibitory activity
same,SI (selectivity index) HT-29,HT-29 (colon cancer),1.0
same,apoptosis induction,MCF-7 cells [2],induction of apoptotic death occurred; also recorded: better inducing apoptosis capacity in comparison to curcumenone (3)
same,morphological changes of MCF-7 cells,MCF-7 cells [3],"cell shrinkage, loss of contact with adjacent cells, and decrease in cell numbers"
same,mechanism-based P450 inhibition,P450,not a mechanism-based inhibitor
same,IC50,Ca Ski (cervical cancer),18.5 ± 1 µg/mL
same,SI (selectivity index) Ca Ski,Ca Ski (cervical cancer),1.4
same,IC50,[6],25.9 ± 1.4 µg/mL
same,toxicity towards normal cells HUVEC (in words),[6],low toxicity
same,IC50,MCF-7 (breast cancer),9.3 ± 0.3 µg/mL
same,antiproliferative/cytotoxic activity against MCF-7 (in words),MCF-7 (breast cancer),strong antiproliferative activity
same,SI (selectivity index) MCF-7,MCF-7 (breast cancer),2.8
"C/C1=C\CC[C@@]2(C)O[C@@H]2CC(C)(C)/C=C/C1=O [Compound 8, zerumbone epoxide]",IC50,PC-3 (prostate cancer),10.8 ± 1.9 µg/mL
same,antiproliferative/cytotoxic activity against PC-3 (in words),PC-3 (prostate cancer),good cytotoxic effect
same,SI (selectivity index) PC-3,PC-3 (prostate cancer),1.3
same,IC50,HT-29 (colon cancer),13.7 ± 2.7 µg/mL
same,antiproliferative/cytotoxic activity against HT-29 (in words),HT-29 (colon cancer),good cytotoxic effect
same,SI (selectivity index) HT-29,HT-29 (colon cancer),1.0
same,cytotoxic effects,[7],possessed cytotoxic effects
same,IC50,Ca Ski (cervical cancer),34.5 ± 0.6 µg/mL
same,SI (selectivity index) Ca Ski,Ca Ski (cervical cancer),0.4
same,IC50,[6],14.2 ± 1.1 µg/mL
same,toxicity towards normal cells HUVEC (in words),[6],slight toxicity
same,IC50,MCF-7 (breast cancer),24.1 ± 0.1 µg/mL
same,SI (selectivity index) MCF-7,MCF-7 (breast cancer),0.6
